Results from paper PMC7168207, “Dibasic Derivatives of Phenylcarbamic Acid as Prospective Antibacterial Agents Interacting with Cytoplasmic Membrane” (Antibiotics, 2020).
“And” between values parts separate entries of the source, which are not always exact repeats. Equal values may be shown once. Read-outs that look alike come from different tables or passages of the source. Marks after values point to notes of the source that are not given here.

Tests used:
S. aureus ATCC 29213 [1] = assay: MIC, broth microdilution; format: cell-based, Staphylococcus aureus; details: Staphylococcus aureus
Summary of the method: (§1)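 Broth microdilution at 5 × 10^5 CFU/mL final inoculum, cation-adjusted Mueller–Hinton broth for staphylococci and brain heart infusion for enterococci, incubated aerobically overnight at 37 °C.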

[2] = system: methicillin-resistant S. aureus 63718; assay: MIC, broth microdilution; format: cell-based, Staphylococcus aureus; details: Staphylococcus aureus, read-out: MICs
Summary of the method: as §1

[3] = system: methicillin-resistant S. aureus SA 3202; assay: MIC, broth microdilution; format: cell-based, Staphylococcus aureus; details: Staphylococcus aureus, read-out: MICs
Summary of the method: as §1

[4] = system: methicillin-resistant S. aureus SA 630; assay: MIC, broth microdilution; format: cell-based, Staphylococcus aureus; details: Staphylococcus aureus, read-out: MICs
Summary of the method: as §1

VRE 342B = assay: synergy with antibiotics (FIC index, checkerboard); format: cell-based, Enterococcus faecalis; details: for MIC: Enterococcus, read-out: MIC of each antibacterial drug alone observed in the synergy experiment; for concentrations of the tested compound/clinically used antibiotic providing additivity or synergy: in the combination of that line
Source text: (§2) Representatives from various classes were chosen in order to study the potential difference in synergistic activity according to the diverse mechanisms of action and resistance of these drugs. The method of minimal fractional inhibitory concentration (FIC) index (FICI) in a microtitration plate was used. FICI ≤ 0.5 means synergy; 0.5 < FICI < 1 means additivity; 1 ≤ FICI < 4 means indifference; and FICI ≥ 4 means antagonism.
(§3) For synergy effect study, a method of fractional inhibitory concentration was used. […] Raw H was used for the evaluation of MIC(A); column 12 was used for evaluation of MIC(B). The plate was inoculated by the bacterial suspension to reach final concentration of 5 × 10^5 CFU/mL in the wells. The fractional inhibitory concentration (FIC) index was calculated using the concentrations in the first nonturbid (clear) well found in each row and column along the turbidity/nonturbidity interface. To interpret the combined effect, the lowest FICI was used. A ΣFIC ≤ 0.5 means synergy; 0.5 < ΣFIC < 1 means additivity; 1 ≤ ΣFIC < 4 means indifference; and ΣFIC ≥ 4 means antagonism. The tests were made in duplicate, and the results were averaged.

VRE 368 = assay: synergy with antibiotics (FIC index, checkerboard); format: cell-based, Enterococcus faecalis; details: for MIC: Enterococcus, VRE, read-out: MIC of each antibacterial drug alone observed in the synergy experiment
Source text: as §2, §3

MRSA 63718 = assay: time-kill study; format: cell-based, Staphylococcus aureus; details: MRSA1
Source text: (§4) Time-kill studies are used to evaluate the dynamics of antibacterial activity. As mentioned above, a pre-test to determine minimum bactericidal concentration (MBC) by sub-cultivation of aliquots on agar was made (see Section 3.4). […] Time-kill studies were made with methicillin-susceptible S. aureus ATCC 29213 and methicillin-resistant MRSA 63718, vancomycin-susceptible E. faecalis ATCC 29212, and all three VRE isolates. Vancomycin was used as a control (Table 6).
(§5) The method of time-kill curves was used to study the bactericidal effect of selected compounds. […] The experiment was performed with S. aureus ATCC 29213, MRSA 63718, E. faecalis ATCC 29212, and all VRE isolates. […] The tubes were inoculated by bacterial inoculum in the exponential phase of growth to get a final concentration of 7.5 × 10^6 CFU/mL. The tubes were incubated statically at 37 °C. Immediately after inoculation and after 4, 6, 8, and 24 h, 100 µL of the sample was serially diluted (1:10) in PBS. Then, 2 × 20 µL from each dilution were put onto a Mueller–Hinton agar plate and cultivated at 37 °C for 24 h. After incubation, CFUs of dilutions containing 5–50 colonies were counted. Results were expressed as a decrease of log10(CFU) in each time compared to the starting inoculum. Bactericidal effect is defined as a −3log decrease of CFU/mL compared to the growth control in time 0. The test was made in duplicate on two separate occasions, and the results were averaged. The growth curves with error bars are shown in Figures S1 and S2 in Supplementary Materials.

S. aureus ATCC 29213 [5] = assay: time-kill study; format: cell-based, Staphylococcus aureus; details: SA
Source text: as §4, §5

[6] = set-up: method as in PMID 30274224; details: methanolic solutions, c = 8.0 × 10^−5 M; cited from earlier work

Compound | concentrations of the tested compound/clinically used antibiotic providing additivity or synergy (VRE 342B; VRE 342B) | Log10 Difference in CFU/mL from Inoculum (MRSA 63718; 1 × MIC, 4 h) | Log10 Difference in CFU/mL from Inoculum (MRSA 63718; 1 × MIC, 6 h) [log10 CFU/mL] | Log10 Difference in CFU/mL from Inoculum (MRSA 63718; 1 × MIC, 8 h) [log10 CFU/mL] | Log10 Difference in CFU/mL from Inoculum (MRSA 63718; 1 × MIC, 24 h) [log10 CFU/mL] | Log10 Difference in CFU/mL from Inoculum (MRSA 63718; 2 × MIC, 4 h) | Log10 Difference in CFU/mL from Inoculum (MRSA 63718; 2 × MIC, 6 h) | Log10 Difference in CFU/mL from Inoculum (MRSA 63718; 2 × MIC, 8 h) [log10 CFU/mL] | Log10 Difference in CFU/mL from Inoculum (MRSA 63718; 2 × MIC, 24 h) [log10 CFU/mL] | Log10 Difference in CFU/mL from Inoculum (MRSA 63718; 4 × MIC, 4 h) | Log10 Difference in CFU/mL from Inoculum (MRSA 63718; 4 × MIC, 6 h) | Log10 Difference in CFU/mL from Inoculum (MRSA 63718; 4 × MIC, 8 h) | Log10 Difference in CFU/mL from Inoculum (MRSA 63718; 4 × MIC, 24 h) [log10 CFU/mL] | Log10 Difference in CFU/mL from Inoculum (S. aureus ATCC 29213 [5]; 1 × MIC, 4 h) [log10 CFU/mL] | Log10 Difference in CFU/mL from Inoculum (S. aureus ATCC 29213 [5]; 1 × MIC, 6 h) [log10 CFU/mL] | Log10 Difference in CFU/mL from Inoculum (S. aureus ATCC 29213 [5]; 1 × MIC, 8 h) [log10 CFU/mL] | Log10 Difference in CFU/mL from Inoculum (S. aureus ATCC 29213 [5]; 1 × MIC, 24 h) [log10 CFU/mL] | Log10 Difference in CFU/mL from Inoculum (S. aureus ATCC 29213 [5]; 2 × MIC, 4 h) [log10 CFU/mL] | Log10 Difference in CFU/mL from Inoculum (S. aureus ATCC 29213 [5]; 2 × MIC, 6 h) [log10 CFU/mL] | Log10 Difference in CFU/mL from Inoculum (S. aureus ATCC 29213 [5]; 2 × MIC, 8 h) [log10 CFU/mL] | other results
CCCCCCCOc1cccc(NC(=O)OC(CN(CCC)CCC)CN2CCCC2)c1.Cl.Cl (centres unmarked) [1h, 1-[3-(Dipropylammonio)-2-({[3-(heptyloxy)phenyl]carbamoyl}oxy)propyl]pyrrolidinium dichloride] | 2 µg/mL | −0.73 * log10 CFU/mL | −0.11 | 0.98 | 1.58 | −0.92 * log10 CFU/mL | −0.42 * log10 CFU/mL | −0.13 | 1.62 | −2.48 * log10 CFU/mL | −2.40 * log10 CFU/mL | −2.08 * log10 CFU/mL | 1.35 | 0.08 | 0.31 | 0.50 | 2.07 | 0.05 | 0.10 | 0.05 | MIC (S. aureus ATCC 29213 [1]; ATCC29213, SA = S. aureus ATCC 29213, read-out: MICs): 8 µg/mL and 15 µM; MIC (S. aureus ATCC 29213 [1]; ATCC29213, Table 7, planktonic cells of S. aureus ATCC 29213, read-out: MIC): 8 µg/mL; MIC ([2]; MRSA1 = S. aureus 63718): 8 µg/mL and 15 µM; MIC ([3]; MRSA3 = SA 3202): 8 µg/mL and 15 µM; MIC ([4]; MRSA2 = SA 630): 8 µg/mL and 15 µM; MIC (VRE 342B; VRE 342B, tested compound/antibiotic): 8 µg/mL; MIC (VRE 368; VRE 368, tested compound/antibiotic): 4 µg/mL; Log10 Difference in CFU/mL from Inoculum (S. aureus ATCC 29213 [5]; 2 × MIC, 24 h): 2.01 log10 CFU/mL; Log10 Difference in CFU/mL from Inoculum (S. aureus ATCC 29213 [5]; 4 × MIC, 4 h): −0.25 log10 CFU/mL; Log10 Difference in CFU/mL from Inoculum (S. aureus ATCC 29213 [5]; 4 × MIC, 6 h): −0.13 log10 CFU/mL; Log10 Difference in CFU/mL from Inoculum (S. aureus ATCC 29213 [5]; 4 × MIC, 8 h): −0.08 log10 CFU/mL; Log10 Difference in CFU/mL from Inoculum (S. aureus ATCC 29213 [5]; 4 × MIC, 24 h): 1.93 log10 CFU/mL; log ε2 (Ch-T) [6]: 4.27
CN[C@H](CC(C)C)C(=O)N[C@H]1C(=O)N[C@@H](CC(N)=O)C(=O)N[C@H]2C(=O)N[C@H]3C(=O)N[C@H](C(=O)N[C@H](C(=O)O)c4cc(O)cc(O)c4-c4cc3ccc4O)[C@H](O)c3ccc(c(Cl)c3)Oc3cc2cc(c3O[C@@H]2O[C@H](CO)[C@@H](O)[C@H](O)[C@H]2O[C@H]2C[C@](C)(N)[C@H](O)[C@H](C)O2)Oc2ccc(cc2Cl)[C@H]1O [VAN, vancomycin, reference compound] | 128 µg/mL and 256 µg/mL | −1.00 log10 CFU/mL | −1.50 | −1.76 | 0.55 | −0.91 log10 CFU/mL | −1.43 log10 CFU/mL | −1.97 | −5.18 | −1.31 log10 CFU/mL | −1.75 log10 CFU/mL | −3.89 log10 CFU/mL | −5.19 | −0.37 | −0.65 | −0.84 | 2.90 | −0.26 | −0.59 | −1.12 | MIC (S. aureus ATCC 29213 [1]; ATCC29213, read-out: MICs): 1 µg/mL and 0.69 µM; MIC [2]: 2 µg/mL and 1.38 µM; MIC [3]: 1 µg/mL and 0.69 µM; MIC [4]: 1 µg/mL and 0.69 µM; MIC (VRE 342B; VRE): 1020 µg/mL; MIC (VRE 368): 512 µg/mL; concentrations of the tested compound/clinically used antibiotic providing additivity or synergy (VRE 368; VRE 368, in the combination of that line): 128 µg/mL; Log10 Difference in CFU/mL from Inoculum (S. aureus ATCC 29213 [5]; 2 × MIC, 24 h): −3.67 log10 CFU/mL; Log10 Difference in CFU/mL from Inoculum (S. aureus ATCC 29213 [5]; 4 × MIC, 4 h): −0.27 log10 CFU/mL; Log10 Difference in CFU/mL from Inoculum (S. aureus ATCC 29213 [5]; 4 × MIC, 6 h): −0.38 log10 CFU/mL; Log10 Difference in CFU/mL from Inoculum (S. aureus ATCC 29213 [5]; 4 × MIC, 8 h): −1.18 log10 CFU/mL; Log10 Difference in CFU/mL from Inoculum (S. aureus ATCC 29213 [5]; 4 × MIC, 24 h): −5.47 log10 CFU/mL
